Literature values in patent publication US20110105450A1, “OPHTHALMIC FORMULATIONS OF FLUTICASONE AND METHODS OF USE” (Aciex Therapeutics, Inc., priority 2009, published 2011).
In brackets after ≈: the same amount, converted by molar mass.

- solubility in 95% ethanol (95% ethanol): slightly soluble
- solubility in dimethyl sulfoxide (dimethyl sulfoxide): freely soluble
- solubility in dimethyl-formamide (dimethyl-formamide): freely soluble
- solubility in methanol (methanol): slightly soluble
- solubility in water (water): 0.14 µg/mL (≈ 0.28 µM)
Structure (SMILES): CCC(=O)O[C@]1(C(=O)SCF)[C@H](C)C[C@H]2[C@@H]3C[C@H](F)C4=CC(=O)C=C[C@]4(C)[C@@]3(F)[C@@H](O)C[C@@]21C [Fluticasone propionate, S-fluoromethyl-6-α-9-difluoro-11-β-hydroxy-16-α-methyl-3-oxoandrosta-1,4-diene-17-β-carbothioate, 17-propionate]
